Reference: PMC10817531, “Chlorinated Enyne Fatty Acid Amides from a Marine Cyanobacterium: Discovery of Taveuniamides L-M and Pharmacological Characterization of Taveuniamide F as a GPCR Antagonist with CNR1 Selectivity” (Marine Drugs, 2023)

How the values were obtained:
Experiment in all cases: PathHunter β-arrestin GpcrMAX assay
Format in all cases: cell-based
GPR35 = biological target: T1, GPR35 (Homo sapiens, UniProt Q9HC97)
T1 construct: purchased DiscoveRx (Eurofins) gpcrMAX PathHunter β-arrestin panel
Procedure: (§1) GpcrMAX panel biosensor assays were used to characterize taveuniamide F (4, 20 µM) (agonist and antagonist mode). The experiments were carried out by DiscoveRx Corporation (Fremont, CA, USA) as described before, using PathHunter β-arrestin enzyme fragment complementation (EFC) technology.

CHRM3 = biological target: T2, CHRM3 (Homo sapiens, UniProt P20309)
T2 construct: purchased DiscoveRx (Eurofins) gpcrMAX PathHunter β-arrestin panel
Procedure: as §1

EDG6 = biological target: T3, EDG6 (Homo sapiens, UniProt O95977)
T3 construct: purchased DiscoveRx (Eurofins) gpcrMAX PathHunter β-arrestin panel
Procedure: as §1

PRLHR = biological target: T4, PRLHR (Homo sapiens, UniProt P49683)
T4 construct: purchased DiscoveRx (Eurofins) gpcrMAX PathHunter β-arrestin panel
Procedure: as §1

HRH4 = biological target: T5, HRH4 (Homo sapiens, UniProt Q9H3N8)
T5 construct: purchased DiscoveRx (Eurofins) gpcrMAX PathHunter β-arrestin panel
Procedure: as §1

OPRL1 = biological target: T6, OPRL1 (Homo sapiens, UniProt P41146)
T6 construct: purchased DiscoveRx (Eurofins) gpcrMAX PathHunter β-arrestin panel
Procedure: as §1

FPR1 = biological target: T7, FPR1 (Homo sapiens, UniProt P21462)
T7 construct: purchased DiscoveRx (Eurofins) gpcrMAX PathHunter β-arrestin panel
Procedure: as §1

EDG4 = biological target: T8, EDG4 (Homo sapiens, UniProt Q9HBW0)
T8 construct: purchased DiscoveRx (Eurofins) gpcrMAX PathHunter β-arrestin panel
Procedure: as §1

TACR1 = biological target: T9, TACR1 (Homo sapiens, UniProt P25103)
T9 construct: purchased DiscoveRx (Eurofins) gpcrMAX PathHunter β-arrestin panel
Procedure: as §1

FPRL1 = biological target: T10, FPRL1 (Homo sapiens, UniProt P25090)
T10 construct: purchased DiscoveRx (Eurofins) gpcrMAX PathHunter β-arrestin panel
Procedure: as §1

MC4R = biological target: T11, MC4R (Homo sapiens, UniProt P32245)
T11 construct: purchased DiscoveRx (Eurofins) gpcrMAX PathHunter β-arrestin panel
Procedure: as §1

P2RY11 = biological target: T12, P2RY11 (Homo sapiens, UniProt Q96G91)
T12 construct: purchased DiscoveRx (Eurofins) gpcrMAX PathHunter β-arrestin panel
Procedure: as §1

MCHR1 = biological target: T13, MCHR1 (Homo sapiens, UniProt Q99705)
T13 construct: purchased DiscoveRx (Eurofins) gpcrMAX PathHunter β-arrestin panel
Procedure: as §1

NTSR1 = biological target: T14, NTSR1 (Homo sapiens, UniProt P30989)
T14 construct: purchased DiscoveRx (Eurofins) gpcrMAX PathHunter β-arrestin panel
Procedure: as §1

AVPR1A = AVPR1A (Homo sapiens, UniProt P37288)
Procedure: as §1

F2RL1 = biological target: T15, F2RL1 (Homo sapiens, UniProt P55085)
T15 construct: purchased DiscoveRx (Eurofins) gpcrMAX PathHunter β-arrestin panel
Procedure: as §1

ADRB1 = biological target: T16, ADRB1 (Homo sapiens, UniProt P08588)
T16 construct: purchased DiscoveRx (Eurofins) gpcrMAX PathHunter β-arrestin panel
Procedure: as §1

OXER1 = biological target: T17, OXER1 (Homo sapiens, UniProt Q8TDS5)
T17 construct: purchased DiscoveRx (Eurofins) gpcrMAX PathHunter β-arrestin panel
Procedure: as §1

KISS1R = biological target: T18, KISS1R (Homo sapiens, UniProt Q969F8)
T18 construct: purchased DiscoveRx (Eurofins) gpcrMAX PathHunter β-arrestin panel
Procedure: as §1

RXFP3 = biological target: T19, RXFP3 (Homo sapiens, UniProt Q9NSD7)
T19 construct: purchased DiscoveRx (Eurofins) gpcrMAX PathHunter β-arrestin panel
Procedure: as §1

DRD2S = biological target: T20, DRD2S (Homo sapiens, UniProt P14416)
T20 construct: purchased DiscoveRx (Eurofins) gpcrMAX PathHunter β-arrestin panel
Procedure: as §1

C5L2 = C5L2 (Homo sapiens, UniProt Q9P296)
Procedure: as §1

MRGPRX1 = biological target: T21, MRGPRX1 (Homo sapiens, UniProt Q96LB2)
T21 construct: purchased DiscoveRx (Eurofins) gpcrMAX PathHunter β-arrestin panel
Procedure: as §1

FSHR = biological target: T22, FSHR (Homo sapiens, UniProt P23945)
T22 construct: purchased DiscoveRx (Eurofins) gpcrMAX PathHunter β-arrestin panel
Procedure: as §1

CRHR2 = biological target: T23, CRHR2 (Homo sapiens, UniProt Q13324)
T23 construct: purchased DiscoveRx (Eurofins) gpcrMAX PathHunter β-arrestin panel
Procedure: as §1

HCRTR1 = biological target: T24, HCRTR1 (Homo sapiens, UniProt O43613)
T24 construct: purchased DiscoveRx (Eurofins) gpcrMAX PathHunter β-arrestin panel
Procedure: as §1

C3AR1 = C3AR1 (Homo sapiens, UniProt Q16581)
Procedure: as §1

CCR10 = biological target: T25, CCR10 (Homo sapiens, UniProt P46092)
T25 construct: purchased DiscoveRx (Eurofins) gpcrMAX PathHunter β-arrestin panel
Procedure: as §1

PTGER2 = biological target: T26, PTGER2 (Homo sapiens, UniProt P43116)
T26 construct: purchased DiscoveRx (Eurofins) gpcrMAX PathHunter β-arrestin panel
Procedure: as §1

NPY1R = biological target: T27, NPY1R (Homo sapiens, UniProt P25929)
T27 construct: purchased DiscoveRx (Eurofins) gpcrMAX PathHunter β-arrestin panel
Procedure: as §1

EDNRB = biological target: T28, EDNRB (Homo sapiens, UniProt P24530)
T28 construct: purchased DiscoveRx (Eurofins) gpcrMAX PathHunter β-arrestin panel
Procedure: as §1

CCR7 = biological target: T29, CCR7 (Homo sapiens, UniProt P32248)
T29 construct: purchased DiscoveRx (Eurofins) gpcrMAX PathHunter β-arrestin panel
Procedure: as §1

P2RY1 = biological target: T30, P2RY1 (Homo sapiens, UniProt P47900)
T30 construct: purchased DiscoveRx (Eurofins) gpcrMAX PathHunter β-arrestin panel
Procedure: as §1

CRHR1 = biological target: T31, CRHR1 (Homo sapiens, UniProt P34998)
T31 construct: purchased DiscoveRx (Eurofins) gpcrMAX PathHunter β-arrestin panel
Procedure: as §1

CRTH2 = biological target: T32, CRTH2 (Homo sapiens, UniProt Q9Y5Y4)
T32 construct: purchased DiscoveRx (Eurofins) gpcrMAX PathHunter β-arrestin panel
Procedure: as §1

TRHR = biological target: T33, TRHR (Homo sapiens, UniProt P34981)
T33 construct: purchased DiscoveRx (Eurofins) gpcrMAX PathHunter β-arrestin panel
Procedure: as §1

HTR1E = biological target: T34, HTR1E (Homo sapiens, UniProt P28566)
T34 construct: purchased DiscoveRx (Eurofins) gpcrMAX PathHunter β-arrestin panel
Procedure: as §1

NPBWR1 = biological target: T35, NPBWR1 (Homo sapiens, UniProt P48145)
T35 construct: purchased DiscoveRx (Eurofins) gpcrMAX PathHunter β-arrestin panel
Procedure: as §1

AGTR1 = AGTR1 (Homo sapiens, UniProt P30556)
Procedure: as §1

PTGFR = biological target: T36, PTGFR (Homo sapiens, UniProt P43088)
T36 construct: purchased DiscoveRx (Eurofins) gpcrMAX PathHunter β-arrestin panel
Procedure: as §1

CCR3 = biological target: T37, CCR3 (Homo sapiens, UniProt P51677)
T37 construct: purchased DiscoveRx (Eurofins) gpcrMAX PathHunter β-arrestin panel
Procedure: as §1

GALR2 = biological target: T38, GALR2 (Homo sapiens, UniProt O43603)
T38 construct: purchased DiscoveRx (Eurofins) gpcrMAX PathHunter β-arrestin panel
Procedure: as §1

TACR3 = biological target: T39, TACR3 (Homo sapiens, UniProt P29371)
T39 construct: purchased DiscoveRx (Eurofins) gpcrMAX PathHunter β-arrestin panel
Procedure: as §1

T29 sequence (P32248 25-378): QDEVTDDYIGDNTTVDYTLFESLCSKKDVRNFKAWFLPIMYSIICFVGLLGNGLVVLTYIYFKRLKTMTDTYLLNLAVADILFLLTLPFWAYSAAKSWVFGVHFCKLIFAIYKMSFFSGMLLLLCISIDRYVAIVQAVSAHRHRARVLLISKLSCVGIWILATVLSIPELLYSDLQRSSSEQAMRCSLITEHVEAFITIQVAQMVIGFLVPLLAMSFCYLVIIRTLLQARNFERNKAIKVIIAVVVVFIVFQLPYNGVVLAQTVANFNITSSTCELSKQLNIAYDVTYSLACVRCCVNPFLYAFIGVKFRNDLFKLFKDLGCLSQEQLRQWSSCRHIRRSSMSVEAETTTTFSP
T2 sequence (P20309 whole entry): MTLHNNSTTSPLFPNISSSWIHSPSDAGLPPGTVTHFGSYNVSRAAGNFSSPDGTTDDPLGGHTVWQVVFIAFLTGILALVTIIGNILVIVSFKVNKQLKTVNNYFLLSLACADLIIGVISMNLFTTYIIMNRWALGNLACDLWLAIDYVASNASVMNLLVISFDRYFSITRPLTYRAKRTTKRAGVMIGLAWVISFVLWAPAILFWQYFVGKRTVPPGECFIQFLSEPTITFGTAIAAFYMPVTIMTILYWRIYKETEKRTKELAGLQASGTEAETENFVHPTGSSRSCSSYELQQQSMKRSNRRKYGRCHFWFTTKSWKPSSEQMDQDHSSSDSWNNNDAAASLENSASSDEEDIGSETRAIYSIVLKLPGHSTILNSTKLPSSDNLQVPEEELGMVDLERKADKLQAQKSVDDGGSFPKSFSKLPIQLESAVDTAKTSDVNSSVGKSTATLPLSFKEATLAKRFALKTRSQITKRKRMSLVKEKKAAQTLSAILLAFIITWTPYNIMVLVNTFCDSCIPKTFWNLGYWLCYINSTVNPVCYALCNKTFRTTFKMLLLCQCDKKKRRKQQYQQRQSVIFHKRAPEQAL
T20 sequence (P14416 1-414 isoform P14416-2): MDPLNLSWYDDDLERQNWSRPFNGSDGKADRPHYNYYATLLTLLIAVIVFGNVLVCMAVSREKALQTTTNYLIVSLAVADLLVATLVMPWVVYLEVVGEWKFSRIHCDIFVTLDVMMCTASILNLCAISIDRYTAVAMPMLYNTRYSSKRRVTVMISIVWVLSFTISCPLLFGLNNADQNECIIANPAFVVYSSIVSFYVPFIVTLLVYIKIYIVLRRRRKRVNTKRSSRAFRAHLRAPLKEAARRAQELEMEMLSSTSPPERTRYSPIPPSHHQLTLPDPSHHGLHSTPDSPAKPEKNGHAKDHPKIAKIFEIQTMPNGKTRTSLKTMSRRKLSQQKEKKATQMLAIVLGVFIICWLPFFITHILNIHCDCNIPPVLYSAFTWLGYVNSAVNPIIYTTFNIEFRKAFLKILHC
T17 sequence (Q8TDS5 whole entry): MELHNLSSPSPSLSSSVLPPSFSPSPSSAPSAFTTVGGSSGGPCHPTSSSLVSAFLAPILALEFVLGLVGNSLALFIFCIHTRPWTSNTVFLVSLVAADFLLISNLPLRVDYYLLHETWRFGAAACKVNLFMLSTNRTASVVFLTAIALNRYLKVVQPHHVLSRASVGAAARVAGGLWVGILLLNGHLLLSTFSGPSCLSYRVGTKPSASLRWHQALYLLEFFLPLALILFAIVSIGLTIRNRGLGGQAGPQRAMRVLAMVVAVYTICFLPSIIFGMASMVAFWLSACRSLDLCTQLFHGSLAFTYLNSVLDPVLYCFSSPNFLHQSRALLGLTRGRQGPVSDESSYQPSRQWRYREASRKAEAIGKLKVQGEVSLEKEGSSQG
T36 sequence (P43088 whole entry): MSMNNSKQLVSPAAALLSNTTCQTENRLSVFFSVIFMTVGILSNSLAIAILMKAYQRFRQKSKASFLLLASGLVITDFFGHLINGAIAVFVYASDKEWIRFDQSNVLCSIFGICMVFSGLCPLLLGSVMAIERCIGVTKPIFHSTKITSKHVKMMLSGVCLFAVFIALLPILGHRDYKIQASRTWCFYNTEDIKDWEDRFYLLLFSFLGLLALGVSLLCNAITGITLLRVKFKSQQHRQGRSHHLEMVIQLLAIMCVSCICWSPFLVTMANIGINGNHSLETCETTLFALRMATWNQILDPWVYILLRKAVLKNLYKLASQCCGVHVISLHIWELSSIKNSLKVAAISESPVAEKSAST
T39 sequence (P29371 whole entry): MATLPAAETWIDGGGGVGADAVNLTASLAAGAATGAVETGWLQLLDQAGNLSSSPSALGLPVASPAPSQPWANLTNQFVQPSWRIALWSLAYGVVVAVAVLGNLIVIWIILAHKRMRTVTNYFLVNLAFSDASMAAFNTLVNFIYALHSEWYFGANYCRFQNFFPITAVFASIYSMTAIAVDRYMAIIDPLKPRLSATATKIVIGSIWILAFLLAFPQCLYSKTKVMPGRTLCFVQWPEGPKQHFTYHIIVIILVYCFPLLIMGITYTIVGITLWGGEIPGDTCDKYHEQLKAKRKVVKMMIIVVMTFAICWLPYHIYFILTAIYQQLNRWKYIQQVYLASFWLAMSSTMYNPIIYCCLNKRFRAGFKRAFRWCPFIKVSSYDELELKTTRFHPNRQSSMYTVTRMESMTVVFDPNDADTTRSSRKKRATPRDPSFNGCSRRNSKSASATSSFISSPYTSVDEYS
T8 sequence (Q9HBW0 whole entry): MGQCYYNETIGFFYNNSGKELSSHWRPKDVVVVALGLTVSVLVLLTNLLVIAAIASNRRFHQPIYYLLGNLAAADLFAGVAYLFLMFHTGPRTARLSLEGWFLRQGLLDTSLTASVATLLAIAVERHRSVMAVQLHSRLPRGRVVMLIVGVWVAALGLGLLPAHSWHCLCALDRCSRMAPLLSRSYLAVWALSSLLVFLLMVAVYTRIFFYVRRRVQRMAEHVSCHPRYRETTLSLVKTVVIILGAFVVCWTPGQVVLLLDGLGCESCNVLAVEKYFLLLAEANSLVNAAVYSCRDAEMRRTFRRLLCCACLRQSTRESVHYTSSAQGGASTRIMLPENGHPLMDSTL
T19 sequence (Q9NSD7 whole entry): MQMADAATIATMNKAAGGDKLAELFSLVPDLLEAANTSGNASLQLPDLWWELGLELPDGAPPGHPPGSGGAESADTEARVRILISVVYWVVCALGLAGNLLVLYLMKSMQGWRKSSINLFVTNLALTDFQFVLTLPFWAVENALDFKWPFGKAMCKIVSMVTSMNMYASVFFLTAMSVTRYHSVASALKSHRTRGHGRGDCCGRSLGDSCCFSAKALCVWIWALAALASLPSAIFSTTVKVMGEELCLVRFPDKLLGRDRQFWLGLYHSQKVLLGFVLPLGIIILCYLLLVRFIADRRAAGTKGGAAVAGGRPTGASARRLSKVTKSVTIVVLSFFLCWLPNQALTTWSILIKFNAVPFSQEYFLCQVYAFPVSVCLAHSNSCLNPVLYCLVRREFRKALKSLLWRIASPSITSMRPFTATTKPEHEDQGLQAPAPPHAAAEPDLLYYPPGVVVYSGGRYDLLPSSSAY
C3AR1, sequence (Q16581 whole entry): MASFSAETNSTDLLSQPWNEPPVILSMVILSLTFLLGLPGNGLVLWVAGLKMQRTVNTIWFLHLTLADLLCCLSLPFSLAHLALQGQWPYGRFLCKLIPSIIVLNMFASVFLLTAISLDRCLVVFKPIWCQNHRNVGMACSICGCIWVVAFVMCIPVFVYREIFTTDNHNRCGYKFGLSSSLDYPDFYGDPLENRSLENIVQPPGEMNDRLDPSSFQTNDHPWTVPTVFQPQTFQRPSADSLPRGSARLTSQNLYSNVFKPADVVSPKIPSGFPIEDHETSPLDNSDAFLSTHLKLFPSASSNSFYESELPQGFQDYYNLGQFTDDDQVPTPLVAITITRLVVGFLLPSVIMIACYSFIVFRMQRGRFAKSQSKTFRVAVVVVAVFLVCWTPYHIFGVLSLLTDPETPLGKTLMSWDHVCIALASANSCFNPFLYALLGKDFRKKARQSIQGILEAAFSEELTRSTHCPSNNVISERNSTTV
T14 sequence (P30989 whole entry): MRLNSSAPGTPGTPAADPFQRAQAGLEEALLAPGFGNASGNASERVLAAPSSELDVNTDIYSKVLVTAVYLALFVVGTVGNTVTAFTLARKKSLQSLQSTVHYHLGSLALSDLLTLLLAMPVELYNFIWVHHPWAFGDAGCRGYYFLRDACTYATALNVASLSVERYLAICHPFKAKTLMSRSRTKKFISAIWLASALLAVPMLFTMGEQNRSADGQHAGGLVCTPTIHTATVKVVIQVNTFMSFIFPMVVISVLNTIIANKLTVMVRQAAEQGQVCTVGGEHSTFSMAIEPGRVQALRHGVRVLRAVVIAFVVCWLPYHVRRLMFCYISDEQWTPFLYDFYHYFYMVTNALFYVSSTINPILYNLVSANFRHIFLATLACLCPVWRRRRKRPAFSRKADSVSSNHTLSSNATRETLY
T3 sequence (O95977 whole entry): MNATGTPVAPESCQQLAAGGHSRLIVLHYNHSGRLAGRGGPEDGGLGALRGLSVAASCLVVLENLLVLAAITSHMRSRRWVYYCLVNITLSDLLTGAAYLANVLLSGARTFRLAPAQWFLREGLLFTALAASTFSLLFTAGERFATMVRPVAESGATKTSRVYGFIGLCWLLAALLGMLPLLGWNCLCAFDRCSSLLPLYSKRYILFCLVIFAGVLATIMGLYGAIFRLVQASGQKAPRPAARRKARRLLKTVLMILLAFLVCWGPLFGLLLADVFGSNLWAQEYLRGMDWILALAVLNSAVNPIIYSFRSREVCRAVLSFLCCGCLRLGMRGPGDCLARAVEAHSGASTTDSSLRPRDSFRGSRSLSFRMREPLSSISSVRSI

inhibition at 20 µM (GPR35): 27.1% | inhibition at 20 µM (CHRM3): 59.9% | inhibition at 20 µM (EDG6): 19.6% | inhibition at 20 µM (PRLHR): 46.6% | inhibition at 20 µM (HRH4): 38.1% | inhibition at 20 µM (OPRL1): 5.4% | inhibition at 20 µM (FPR1): -4.7% | inhibition at 20 µM (EDG4): 56.3% | inhibition at 20 µM (TACR1): 0.5% | inhibition at 20 µM (FPRL1): 2.5% | inhibition at 20 µM (MC4R): 49.1% | inhibition at 20 µM (P2RY11): 8.2% | inhibition at 20 µM (MCHR1): 16.3% | inhibition at 20 µM (NTSR1): 18.8% | inhibition at 20 µM (AVPR1A): 48.5% | inhibition at 20 µM (F2RL1): -6.7% | inhibition at 20 µM (ADRB1): 52.7% | inhibition at 20 µM (OXER1): 18.1% | inhibition at 20 µM (KISS1R): 31.5% | inhibition at 20 µM (RXFP3): 32.8% | inhibition at 20 µM (DRD2S): -8.1% | inhibition at 20 µM (C5L2): 24.1% | inhibition at 20 µM (MRGPRX1): -21.3% | inhibition at 20 µM (FSHR): 40.5% | inhibition at 20 µM (CRHR2): 12% | inhibition at 20 µM (HCRTR1): 44.9% | inhibition at 20 µM (C3AR1): 10.3% | inhibition at 20 µM (CCR10): 33.3% | inhibition at 20 µM (PTGER2): 4.4% | inhibition at 20 µM (NPY1R): 3.4% | inhibition at 20 µM (EDNRB): 23% | inhibition at 20 µM (CCR7): 8.2% | inhibition at 20 µM (P2RY1): 5.5% | inhibition at 20 µM (CRHR1): -2.4% | inhibition at 20 µM (CRTH2): 16.9% | inhibition at 20 µM (TRHR): 42.8% | inhibition at 20 µM (HTR1E): 26.8% | inhibition at 20 µM (NPBWR1): -12.1% | inhibition at 20 µM (AGTR1): 23.3% | inhibition at 20 µM (PTGFR): 43.1% | inhibition at 20 µM (CCR3): 19.2% | inhibition at 20 µM (GALR2): 23.1% | inhibition at 20 µM (TACR3): 15.2%
SMILES: CC(=O)N[C@@H](CCCC#C/C=C/Cl)CCCCCCC(Cl)Cl [Compound 4, taveuniamide F]
